Assay results: article PMC3024462 (Journal of medicinal chemistry, 2010)

Tests used:
HIV-1 protease = HIV-1 protease (Human immunodeficiency virus type 1 group M subtype B, UniProt P04585); experiment: HIV-1 protease enzyme inhibitory assay; assay type: biochemical; conditions: compared to inhibitor 35a
HIV-1LAI = experiment: Antiviral activity in MT-2 human T-lymphoid cells exposed to HIV-1LAI, MTT assay; assay type: cell-based
HIV-1MDR/MM (R5) = assay type: cell-based; conditions: number in parentheses
HIV-1MDR/B (X4) = assay type: cell-based; conditions: number in parentheses
HIV-1MDR/C (X4) = assay type: cell-based; conditions: number in parentheses
HIV-1MDR/TM (X4) = assay type: cell-based; conditions: number in parentheses
HIV-1MDR/JSL (R5) = assay type: cell-based; conditions: number in parentheses
HIV-1MDR/G (X4) = assay type: cell-based; conditions: number in parentheses

COc1ccc(S(=O)(=O)N(CC(C)C)C[C@@H](O)[C@H](Cc2ccccc2)NC(=O)O[C@@H]2CCO[C@@H]3OCC[C@@H]32)cc1 [Inhibitor 35b, (3aR,4R,7aS)-Hexahydro-2H-furo[2,3-b]pyran-4-yl ((2S,3R)-3-hydroxy-4-(N-isobutyl-4-methoxyphenylsulfonamido)-1-phenylbutan-2-yl)carbamate]
fold change in Ki (loss of enzyme inhibitory potency) (HIV-1 protease): > 20 fold
ID50 (antiviral activity) (HIV-1LAI; MT-2 cells exposed to HIV-1LAI): 0.019 µM

COc1ccc(S(=O)(=O)N(CC(C)C)C[C@@H](O)[C@H](Cc2ccccc2)NC(=O)O[C@H]2CCO[C@H]3COC[C@H]32)cc1 [Inhibitor 35f, (4S,4aS,7aR)-Hexahydro-2H-furo[3,4-b]pyran-4-yl ((2S,3R)-3-hydroxy-4-(N-isobutyl-4-methoxyphenylsulfonamido)-1-phenylbutan-2-yl)carbamate]
antiviral activity (in words) (HIV-1LAI; MT-2 cells exposed to HIV-1LAI): no antiviral activity

COC(=O)N[C@H](C(=O)N[C@@H](Cc1ccccc1)[C@@H](O)CN(Cc1ccc(-c2ccccn2)cc1)NC(=O)[C@@H](NC(=O)OC)C(C)(C)C)C(C)(C)C [ATV, atazanavir]
fold change of EC50 compared to wild-type HIV-1ERS104pre (HIV-1MDR/MM (R5)): 76
fold change of EC50 compared to wild-type HIV-1ERS104pre (HIV-1MDR/B (X4)): 174
fold change of EC50 compared to wild-type HIV-1ERS104pre (HIV-1MDR/C (X4)): 14
fold change of EC50 compared to wild-type HIV-1ERS104pre (HIV-1MDR/TM (X4)): 28
fold change of EC50 compared to wild-type HIV-1ERS104pre (HIV-1MDR/JSL (R5)): 109
fold change of EC50 compared to wild-type HIV-1ERS104pre (HIV-1MDR/G (X4)): 7

COc1ccc(S(=O)(=O)N(CC(C)C)C[C@@H](O)[C@H](Cc2ccccc2)NC(=O)O[C@H]2CCC[C@H]3OCC[C@@H]23)cc1 [Inhibitor 35c, (3aR,4S,7aR)-Octahydrobenzofuran-4-yl (2S,3R)-3-hydroxy-4-(N-isobutyl-4-methoxyphenylsulfonamido)-1-phenylbutan-2-yl carbamate]
fold change in Ki (loss of enzyme inhibitory potency) (HIV-1 protease): 2 fold
fold decrease in antiviral activity (HIV-1LAI; compared to inhibitor 35a): 16 fold
